In patent US9073916B2, “Prodrug forms of kinase inhibitors and their use in therapy” (AUCKLAND UNISERVICES LIMITED, priority 2009, dated 2015):
Where two headings read alike, the source gives them in different places.

Legend:
SKOV3 xenografts = assay: In vivo efficacy in SKOV3 xenografts; design: species or system mice
Method: (§1) Specific pathogen-free homozygous female NIH-III nude mice (Charles River Laboratories, Wilmington, Mass.) were inoculated subcutaneously with a single cell suspension of SKOV3 cells (1×10^7 cells/100 μL; right flank). When SKOV3 tumour xenografts were established (typically 50-65 days) mice were randomized to treatment groups. All compounds were prepared in lactate buffer (pH4). Mice were dosed by intraperitoneal injection (0.01-0.03 ml/g) using the stated schedules and dose levels. Tumour size and body weights were measured at regular intervals. Tumour volume was calculated as π (length×width^2)/6. […] Differences in RTV^4 were tested for statistical difference by Mann Whitney U test using SigmaStat v3.5.
as §1, with “Compounds 42 and 161” for “All compounds”

SKOV3 cells = assay: Oxic and hypoxic cellular metabolism of prodrug 20; format: in vitro ADME, Human; details: 10 uM prodrug
Method: A431 and SKOV3 cells were grown in a 175 flask and seeded at 40K, a density which gave an 80-90% confluent cell layer after 7 days growth. Cells were washed with PBS, harvested with 0.05% trypsin/EDTA, centrifuged at 1000 rpm for 5 mins at room temperature and re-suspended in a 1 mL of cell culture medium (α-MEM containing 10% FCS, 10 mM D-Glucose and 0.2 mM 2′-deoxycytidine). Cell numbers were determined with the Coulter counter and the appropriate number of cells was transferred to a new tube. 5×10^5 cells per well were plated into wells of a 24-well plate in a total volume of 350 μL/well (i.e. 14.3×10^5 cells/mL). Cells were incubated at 37° C. for two hours to attach to the wells and for anoxic samples to equilibrate. […] The cells were incubated for 1, 2 or 3 hours at 37° C. At the appropriate time the 24 well plate was removed from the incubator/anoxic chamber and placed on ice. The contents of each well was transferred to the microcentrifuge tube kept on ice. 800 μL of acetonitrile (spiked with D6 internal standards of compounds 11 and 20, each 0.5 uM) was added to each of the drug treated wells to allow efficient extraction from the cell monolayer. Then the entire contents (1200 uL=400+800 uL) was vortex mixed and transferred to −80° C. for storage until they were run on the LC-MS/MS system. A similar procedure was followed for the control samples. […]

erbB1 = erbB1 (Homo sapiens, UniProt P00533); assay: Inhibition of erbB1 autophosphorylation in EGF-stimulated intact A431 cells (Western blot)
A431 xenografts = assay: In vivo efficacy in A431 xenografts
Method: as §1, with “CD-1” for “NIH-III”, “A431” for “SKOV3”, “(5×10^6” for “(1×10^7”, “[…];” for “μL;”, “6-10” for “50-65”

[1] = Pulse radiolysis (E(1) and fragmentation rate); format: physicochemical; details: for kfrag. (fragmentation rate constant upon 1-electron reduction): benzyl-type radical formation; for E (1)/V (one-electron reduction potential): determined against methylviologen
A431 cells = assay: Cellular growth inhibition (sulforhodamine B)
Method: Human A431, BT474, SKBR3, SKOV3, SW620, H1975 and HT29 carcinoma cells in log phase exponential growth in alpha minimal essential media (αMEM) containing 5% fetal bovine serum (FBS), were harvested by trypsinisation (1× trypsin/EDTA, Gibco Brl), counted, and seeded into 96 well plates (Nunc) at cell densities ranging from 800-1500 cells/well. Half of the cell samples were seeded into plates that were pre-equilibrated and held in an anoxic environment (90% N2, 5% H2, 5% CO2, 37° Q Anaerobic chamber, Coy Laboratory Products). […] At the end of this period the anoxic plates were recovered from the anaerobic camber and held under normoxia in a standard CO2 incubator (37° C.) for 20 hours. All plates were washed free of compound and cells were allowed to proliferate for a further 4 days in αMEM containing 5% FBS+antibiotics. Cells were fixed in trichloroacteic acid (30 min), washed and stained with sulforhodamine B (SRB, 60 min) prior to washing in acidified water. SRB was solubilised and absorption read at 450 nm to calculate cell densities. Inhibition of proliferation was calculated relative to untreated control wells.
Human A431, H1975 and SKOV3 carcinoma cells in log phase exponential growth in alpha minimal essential media (αMEM) containing 5% fetal bovine serum (FBS), were harvested by trypsinisation (1× trypsin/EDTA, Gibco Brl), counted, and seeded into 96 well plates (Nunc) at cell densities ranging from 800-1500 cells/well. Half of the cell samples were seeded into plates that were pre-equilibrated and held in an anoxic environment (90% N2, 5% H2, 5% CO2, 37° C.; Anaerobic chamber, Coy Laboratory Products). […] At the end of this period the anoxic plates were recovered from the anaerobic camber and held under normoxia in a standard CO2 incubator (37° C.) for 20 hours. All plates were washed free of compound and cells were allowed to proliferate for a further 4 days in αMEM containing 5% FBS+antibiotics. Cells were fixed in trichloroacteic acid (30 min), washed and stained with sulforhodamine B (SRB, 60 min) prior to washing in acidified water. SRB was solubilised and absorption read at 450 nm to calculate cell densities. Inhibition of proliferation was calculated relative to untreated control wells.

erbB1, sequence (P00533 25-1210): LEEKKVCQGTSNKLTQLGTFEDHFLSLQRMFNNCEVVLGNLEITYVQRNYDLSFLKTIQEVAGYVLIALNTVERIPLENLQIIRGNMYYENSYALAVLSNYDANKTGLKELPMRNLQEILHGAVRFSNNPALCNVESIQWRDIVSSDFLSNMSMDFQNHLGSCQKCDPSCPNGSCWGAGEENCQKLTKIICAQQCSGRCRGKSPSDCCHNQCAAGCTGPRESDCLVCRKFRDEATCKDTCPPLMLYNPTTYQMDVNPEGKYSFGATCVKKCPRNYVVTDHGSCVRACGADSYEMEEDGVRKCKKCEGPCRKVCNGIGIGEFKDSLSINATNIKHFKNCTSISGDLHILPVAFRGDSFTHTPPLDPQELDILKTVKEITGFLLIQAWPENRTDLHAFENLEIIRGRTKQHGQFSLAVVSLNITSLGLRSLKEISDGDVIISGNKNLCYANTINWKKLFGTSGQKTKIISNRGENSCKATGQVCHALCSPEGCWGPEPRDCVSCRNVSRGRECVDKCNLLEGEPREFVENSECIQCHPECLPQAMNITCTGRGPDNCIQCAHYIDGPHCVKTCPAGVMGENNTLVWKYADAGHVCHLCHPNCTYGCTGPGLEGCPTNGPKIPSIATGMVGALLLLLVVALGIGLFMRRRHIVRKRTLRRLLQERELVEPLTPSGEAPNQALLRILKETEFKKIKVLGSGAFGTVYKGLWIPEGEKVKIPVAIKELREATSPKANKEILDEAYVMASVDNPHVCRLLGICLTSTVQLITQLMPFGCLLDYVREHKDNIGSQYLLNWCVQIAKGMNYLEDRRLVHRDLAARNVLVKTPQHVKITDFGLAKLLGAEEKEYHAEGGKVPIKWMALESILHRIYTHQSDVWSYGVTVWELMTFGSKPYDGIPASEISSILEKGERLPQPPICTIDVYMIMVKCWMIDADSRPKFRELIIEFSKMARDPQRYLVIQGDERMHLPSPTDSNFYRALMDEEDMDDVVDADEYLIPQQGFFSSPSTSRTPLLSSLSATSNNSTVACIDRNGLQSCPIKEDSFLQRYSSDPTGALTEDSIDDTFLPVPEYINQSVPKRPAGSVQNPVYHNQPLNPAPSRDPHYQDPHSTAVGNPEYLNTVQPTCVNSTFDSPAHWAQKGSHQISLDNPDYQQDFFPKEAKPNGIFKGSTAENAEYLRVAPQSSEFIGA

Which “efficacy by growth delay” value (SKOV3 xenografts; 133 (20) and 56 (11) umol/kg/dose, q3dx6, IP) does the source give for Cn1cnc([N+](=O)[O-])c1C[N+](C)(C)C/C=C/C(=O)Nc1ccc2ncnc(Nc3cccc(Br)c3)c2c1.[Br-] [Compound 20, (2E)-4-{[4-(3-bromoanilino)-6-quinazolinyl]amino}-N,N-dimethyl-N-[(1-methyl-4-nitro-1H-imidazol-5-yl)methyl]-4-oxo-2-buten-1-ammonium bromide] here?
The value was “superior efficacy to effector 11”.

And the deaths (SKOV3 xenografts; q3dx6, 133 (20) and 56 (11) umol/kg/dose)?
Its deaths is 0/7.

What about the “rate of hypoxic metabolism to inhibitor 11” value (SKOV3 cells) of the same compound?
Its value is 500 pmol/hour/million cells.

And the IC50 (erbB1; read-out: cellular erbB1 autophosphorylation IC50, intact A431 cells)?
The IC50 was 555 nM.

And the “efficacy by growth delay” value (A431 xenografts; A431 xenografts, equitoxic dose (63% of single dose MTD), q4dx6, IP)?
Its value is “superior efficacy to effector 11”.

And the “tumour growth inhibition (TGI)” value (A431 xenografts; A431 xenografts, q4dx3 at MTD, IP in lactate buffer)?
The value was > 210%.

What about the deaths (A431 xenografts; A431 xenografts, q4dx6, 63% of single dose MTD) of the same compound?
The deaths was 0/12.

What about the “kfrag. (fragmentation rate constant upon 1-electron reduction)” value [1] of the same compound?
Its value is 130 ± 10 s⁻¹.

And the “E (1)/V (one-electron reduction potential)” value [1]?
The value was −0.427 V.

What about the IC50 (A431 cells; read-out: Cellular Growth Inhibition IC50 A431 Anoxic, Table 3, first 4 hours of 24 hour exposure anoxic) of the same compound?
The IC50 was 78 nM.

What about the IC50 (A431 cells; read-out: Cellular Growth Inhibition IC50 A431 Oxic, Table 3, 24 hour exposure entirely oxic) of the same compound?
Its IC50 is 2090 nM.

With Cn1cnc([N+](=O)[O-])c1C[N+](C)(C)C/C=C/C(=O)Nc1cc2c(Nc3ccc(F)c(Br)c3)ncnc2cn1 [Compound 42, (2E)-4-{[4-(3-bromo-4-fluoroanilino)pyrido[3,4-d]pyrimidin-6-yl]amino}-N,N-dimethyl-N-[(1-methyl-4-nitro-1H-imidazol-5-yl)methyl]-4-oxo-2-buten-1-ammonium bromide] as the compound, how does the “efficacy by growth delay” value (SKOV3 xenografts; 100 (42) and 31.6 (161) μmol/kg/dose, q3dx9, IP) read?
Its value is “superior efficacy to compound 161”.

And the deaths (SKOV3 xenografts; q3dx9, 100 (42) and 31.6 (161) μmol/kg/dose)?
The deaths was 0/7.

What about the IC50 (erbB1) of the same compound?
The IC50 was 411 nM.

And the “Deact. erbB1 (fold reduction in cellular inhibition relative to the parent kinase inhibitor)” value (erbB1; Table 8, A431 cells)?
The value was 82 fold.

What about the “tumour growth inhibition (TGI)” value (A431 xenografts; large A431 xenografts, 20 mg/kg/dose, q3dx8, IP) of the same compound?
Its value is 400%.

What about the “tumour growth inhibition (TGI)” value (A431 xenografts; large A431 xenografts, 40 mg/kg/dose, q3dx8, IP) of the same compound?
The value was 800%.

And the “tumour growth inhibition (TGI)” value (A431 xenografts; large A431 xenografts, 60 mg/kg/dose, q3dx8, IP)?
The value was 786%.

What about the “tumour growth inhibition (TGI)” value (A431 xenografts; large A431 xenografts, 80 mg/kg/dose, q3dx8, IP) of the same compound?
The value was 843%.

What about the “kfrag. (fragmentation rate constant upon 1-electron reduction)” value [1] of the same compound?
Its value is 50 ± 10 s⁻¹.

What about the “E (1)/V (one-electron reduction potential)” value [1] of the same compound?
Its value is −0.425±0.008 V.

What about the IC50 (A431 cells; Homo sapiens, A-431, 4 h, read-out: Cellular Growth Inhibition IC50 A431 Anoxic) of the same compound?
Its IC50 is 75 nM.

And the IC50 (A431 cells; Homo sapiens, A-431, 24 h, read-out: Cellular Growth Inhibition IC50 A431 Oxic)?
Its IC50 is 1690 nM.

And the “A431 Deact.” value (A431 cells; Table 9)?
The value was 56 fold.

And the “A431 HCR” value (A431 cells; Table 9)?
The value was 60.0 fold.
